Measured values published in patent publication US20080153850A1, “Adamantyl Derivates as P2x7 Receptor Antagonists” (AstraZeneca AB, priority 2004, published 2008).
Structures can show the parent of a compound that is named as a salt.

| Structure (SMILES) | melting point |
| --- | --- |
| O=C(NCC12CC3CC(CC(C3)C1)C2)c1cc(-c2nccnc2C(=O)O)ccc1Cl (as salt: sodium) [Example 6, 3-[4-Chloro-3-[[(tricyclo[3.3.1.1^3,7]dec-1-ylmethyl)amino]carbonyl]phenyl]-2-pyrazinecarboxylic acid, monosodium salt] | 194 to 195 °C (dec.) |
| O=C(O)Cc1ncccc1-c1ccc(Cl)c(C(=O)NCC23CC4CC(CC(C4)C2)C3)c1 (as salt: sodium) [Example 58, 3-[4-Chloro-3-[[(tricyclo[3.3.1.1^3,7]dec-1-ylmethyl)amino]carbonyl]phenyl]-2-pyridineacetic acid, monosodium salt] | 186 to 187 °C (dec.) |
| O=C(O)c1cccc(-c2ccc(Cl)c(C(=O)NCC34CC5CC(CC(C5)C3)C4)c2)c1 [Example 2, 4′-Chloro-3′-[[(tricyclo[3.3.1.1^3,7]dec-1-ylmethyl)amino]carbonyl]-[1,1′-biphenyl]-3-carboxylic acid] | 255 to 257 °C |
| O=C(NCC12CC3CC(CC(C3)C1)C2)c1cc(-c2ccccc2C(=O)O)ccc1Cl [Example 3, 4′-Chloro-3′-[[(tricyclo[3.3.1.1^3,7]dec-1-ylmethyl)amino]carbonyl]-[1,1′-biphenyl]-2-carboxylic acid] | 228 to 230 °C |
| N#CNc1cncc(-c2ccc(Cl)c(C(=O)NCC34CC5CC(CC(C5)C3)C4)c2)n1 [Example 4, 2-Chloro-5-[6-(cyanoamino)pyrazinyl]-N-(tricyclo[3.3.1.1^3,7]dec-1-ylmethyl)-benzamide] | 215 to 220 °C (dec.) |
| N#CNc1nccnc1-c1ccc(Cl)c(C(=O)NCC23CC4CC(CC(C4)C2)C3)c1 [Example 5, 2-Chloro-5-[3-(cyanamino)pyrazinyl]-N-(tricyclo[3.3.1.1^3,7]dec-1-ylmethyl)-benzamide] | 110 to 115 °C (dec.) |
| O=C(O)c1cccc(-c2cc(C(=O)NCC34CC5CC(CC(C5)C3)C4)c(Cl)cn2)c1 [Example 7, 3-[5-Chloro-4-[[(tricyclo [3.3.1.1^3,7]dec-1-ylmethyl)amino]carbonyl]-2-pyridinyl]-benzoic acid] | 200 to 202 °C |
| CS(=O)(=O)Nc1nccnc1-c1ccc(Cl)c(C(=O)NCC23CC4CC(CC(C4)C2)C3)c1 [Example 8, 2-Chloro-5-[3-[(methylsulfonyl)amino)pyrazinyl]-N-(tricyclo[3.3.1.1^3,7]dec-1-ylmethyl)-benzamide] | 245 °C (dec.) |
| O=C(NCC12CC3CC(CC(C3)C1)C2)c1cc(-c2nccnc2-c2nnn[nH]2)ccc1Cl [Example 9, 2-Chloro-5-[3(1-H-tetrazol-5-yl)pyrazinyl]-N-(tricyclo[3.3.1.1^3,7]dec-1-ylmethyl)-benzamide] | 254 °C (dec.) |
| O=C(NCC12CC3CC(CC(C3)C1)C2)c1cc(-c2ncccc2C(=O)O)ccc1Cl [Example 10, 2-[4-Chloro-3-[[(tricyclo[3.3.1.1^3,7]dec-1-ylmethyl)amino]carbonyl]phenyl]-3-pyridinecarboxylic acid] | 169 to 172 °C |
| O=C(O)c1ccnc(-c2ccc(Cl)c(C(=O)NCC34CC5CC(CC(C5)C3)C4)c2)c1 [Example 12, 2-[4-Chloro-3-[[(tricyclo[3.3.1.1^3,7]dec-1-ylmethyl)amino]carbonyl]phenyl]-4-pyridinecarboxylic acid] | 284 to 287 °C |
| Cc1ccc(C(=O)O)c(-c2ccc(Cl)c(C(=O)NCC34CC5CC(CC(C5)C3)C4)c2)n1 [Example 13, 2-[4-Chloro-3-[[(tricyclo[3.3.1.1^3,7]dec-1-ylmethyl)amino]carbonyl]phenyl]-6-methyl-3-pyridinecarboxylic acid] | 209 to 211 °C |
| C[C@H](Oc1ccccc1-c1ccc(Cl)c(C(=O)NCC23CC4CC(CC(C4)C2)C3)c1)C(=O)O [Example 14, (2S)-2-[[4′-chloro-3′-[[(tricyclo[3.3.1.1^3,7]dec-1-ylmethyl)amino]carbonyl][1,1′-biphenyl]-2-yl]oxy]-propanoic acid] | 107 to 110 °C |
| O=C(O)COc1ccccc1-c1ccc(Cl)c(C(=O)NCC23CC4CC(CC(C4)C2)C3)c1 [Example 15, [[4′-Chloro-3′-[[(tricyclo[3.3.1.1^3,7]dec-1-ylmethyl)amino]carbonyl][1,1′-biphenyl]-2-yl]oxy]-acetic acid] | 208 to 210 °C |
| O=C(O)CCOc1ccccc1-c1ccc(Cl)c(C(=O)NCC23CC4CC(CC(C4)C2)C3)c1 [Example 16, 3-[[4′-Chloro-3′-[[(tricyclo[3.3.1.1^3,7]dec-1-ylmethyl)amino]carbonyl][1,1′-biphenyl]-2-yl]oxy]-propanoic acid] | 163 to 164 °C |
| O=C(NCC12CC3CC(CC(C3)C1)C2)c1cc(-c2ncc(Cl)cc2C(=O)O)ccc1Cl [Example 17, 5-Chloro-2-[4-chloro-3-[[(tricyclo[3.3.1.1^3,7]dec-1-ylmethyl)amino]carbonyl]phenyl]-3-pyridinecarboxylic acid] | 165 to 168 °C |
| Cc1cccc(C(=O)O)c1-c1ccc(Cl)c(C(=O)NCC23CC4CC(CC(C4)C2)C3)c1 [Example 18, 4′-Chloro-6-methyl-3′-[[(tricyclo[3.3.1.1^3,7]dec-1-ylmethyl)amino]carbonyl]-[1,1′-biphenyl]-2-carboxylic acid] | 151 to 154 °C |

| Structure (SMILES) | melting point |
| --- | --- |
| O=C(NCC12CC3CC(CC(C3)C1)C2)c1cc(-c2ccsc2C(=O)O)ccc1Cl [Example 19, 3-[4-Chloro-3-[[(tricyclo[3.3.1.1^3,7]dec-1-ylmethyl)amino]carbonyl]phenyl]-2-thiophenecarboxylic acid] | 140 to 143 °C |
| O=C(O)c1cccc(-c2ccc(Cl)c(C(=O)NCC34CC5CC(CC(C5)C3)C4)c2)n1 [Example 20, 6-[4-Chloro-3-[[(tricyclo[3.3.1.1^3,7]dec-1-ylmethyl)amino]carbonyl]phenyl]-2-pyridinecarboxylic acid] | 170 to 173 °C |
| O=C(O)c1coc(-c2ccc(Cl)c(C(=O)NCC34CC5CC(CC(C5)C3)C4)c2)n1 [Example 23, 2-[4-Chloro-3-[[(tricyclo[3.3.1.1^3,7]dec-1-ylmethyl)amino]carbonyl]phenyl]-4-oxazolecarboxylic acid] | 254 to 257 °C |
| Cc1ccc(-c2ccc(Cl)c(C(=O)NCC34CC5CC(CC(C5)C3)C4)c2)c(C(=O)O)c1 [Example 24, 4′-Chloro-4-methyl-3′-[[(tricyclo[3.3.1.1^3,7]dec-1-ylmethyl)amino]carbonyl]-[1,1′-biphenyl]-2-carboxylic acid] | 214 to 216 °C |
| CS(=O)(=O)NC(=O)c1cccc(-c2ccc(Cl)c(C(=O)NCC34CC5CC(CC(C5)C3)C4)c2)n1 [Example 25, 6-[4-Chloro-3-[[(tricyclo[3.3.1.1^3,7]dec-1-ylmethyl)amino]carbonyl]phenyl]-N-(methylsulfonyl)-2-pyridinecarboxamide] | 160 to 162 °C |
| O=C(O)CNc1ncccc1-c1ccc(Cl)c(C(=O)NCC23CC4CC(CC(C4)C2)C3)c1 [Example 26, N-[3-[4-Chloro-3-[[(tricyclo[3.3.1.1^3,7]dec-1-ylmethyl)amino]carbonyl]phenyl]-2-pyridinyl]-glycine] | 160 to 164 °C |
| CS(=O)(=O)Nc1cccc(-c2ccc(Cl)c(C(=O)NCC34CC5CC(CC(C5)C3)C4)c2)n1 [Example 27, 2-Chloro-5-[6-[(methylsulfonyl)amino]-2-pyridinyl]-N-(tricyclo[3.3.1.1^3,7]dec-1-ylmethyl)-benzamide] | 115 to 120 °C |
| O=C(O)COc1ncccc1-c1ccc(Cl)c(C(=O)NCC23CC4CC(CC(C4)C2)C3)c1 [Example 28, [[3-[4-Chloro-3-[[(tricyclo[3.3.1.1^3,7]dec-1-ylmethyl)amino]carbonyl]phenyl]-2-pyridinyl]oxy]-acetic acid] | 226 to 229 °C |
| O=C(NCC12CC3CC(CC(C3)C1)C2)c1cc(-c2ncccc2OCc2nnn[nH]2)ccc1Cl [Example 29, 2-Chloro-5-[3-(1H-tetrazol-5-ylmethoxy)-2-pyridinyl]-N-(tricyclo[3.3.1.1^3,7]dec-1-ylmethyl)-benzamide] | 122 to 126 °C |
| COc1ccc(-c2ccc(Cl)c(C(=O)NCC34CC5CC(CC(C5)C3)C4)c2)c(C(=O)O)c1 [Example 30, 4′-Chloro-4-methoxy-3′-[[(tricyclo[3.3.1.1^3,7]dec-1-ylmethyl)amino]carbonyl]-[1,1′-biphenyl]-2-carboxylic acid] | 219 to 221 °C |
| Cn1cc(-c2ccc(Cl)c(C(=O)NCC34CC5CC(CC(C5)C3)C4)c2)c(C(=O)O)n1 [Example 31, 4-[4-Chloro-3-[[(tricyclo[3.3.1.1^3,7]dec-1-ylmethyl)amino]carbonyl]phenyl]-1-methyl-1H-pyrazole-3-carboxylic acid] | 166 to 175 °C (dec.) |
| Cn1ncc(-c2ccc(Cl)c(C(=O)NCC34CC5CC(CC(C5)C3)C4)c2)c1C(=O)O [Example 32, 4-[4-Chloro-3-[[(tricyclo[3.3.1.1^3,7]dec-1-ylmethyl)amino]carbonyl]phenyl]-1-methyl-1H-pyrazole-5-carboxylic acid] | 187 to 190 °C (dec.) |
| CN(CC(=O)O)c1nccnc1-c1ccc(Cl)c(C(=O)NCC23CC4CC(CC(C4)C2)C3)c1 [Example 33, N-[3-[4-Chloro-3-[[(tricyclo[3.3.1.1^3,7]dec-1-ylmethyl)amino]carbonyl]phenyl]pyrazinyl]-N-methyl-glycine] | 151 to 153 °C (dec.) |
| O=C(NCC12CC3CC(CC(C3)C1)C2)c1cc(-c2nccnc2N2CCC(C(=O)O)CC2)ccc1Cl [Example 34, 1-[3-[4-Chloro-3-[[(tricyclo[3.3.1.1^3,7]dec-1-ylmethyl)amino]carbonyl]phenyl]pyrazinyl]-4-piperidinecarboxylic acid] | 136 to 140 °C |
| O=C(NCC12CC3CC(CC(C3)C1)C2)c1cc(-c2c(F)cccc2C(=O)O)ccc1Cl [Example 35, 4′-Chloro-6-fluoro-3′-[[(tricyclo[3.3.1.1^3,7]dec-1-ylmethyl)amino]carbonyl]-[1,1′-biphenyl]-2-carboxylic acid] | 108 to 113 °C |
| O=C(NCC12CC3CC(CC(C3)C1)C2)c1cc(-c2cc(F)ccc2C(=O)O)ccc1Cl [Example 36, 4′-Chloro-5-fluoro-3′-[[(tricyclo[3.3.1.1^3,7]dec-1-ylmethyl)amino]carbonyl]-[1,1′-biphenyl]-2-carboxylic acid] | 120 to 124 °C |
